Blank lines part the entries; values can stand above or below the molecule they belong to.
Assays:
[1] = molecular target: T1, AcCATPO (Amaranthus cruentus, UniProt A0A2Z0PTH5); assay: diphenolase activity toward L-DOPA, absorbance […] nm and in-gel staining; type: biochemical; settings: 1 mM L-DOPA substrate, pH 8.0, 60 °C, chelator
T1 sequence (A0A2Z0PTH5 1-492): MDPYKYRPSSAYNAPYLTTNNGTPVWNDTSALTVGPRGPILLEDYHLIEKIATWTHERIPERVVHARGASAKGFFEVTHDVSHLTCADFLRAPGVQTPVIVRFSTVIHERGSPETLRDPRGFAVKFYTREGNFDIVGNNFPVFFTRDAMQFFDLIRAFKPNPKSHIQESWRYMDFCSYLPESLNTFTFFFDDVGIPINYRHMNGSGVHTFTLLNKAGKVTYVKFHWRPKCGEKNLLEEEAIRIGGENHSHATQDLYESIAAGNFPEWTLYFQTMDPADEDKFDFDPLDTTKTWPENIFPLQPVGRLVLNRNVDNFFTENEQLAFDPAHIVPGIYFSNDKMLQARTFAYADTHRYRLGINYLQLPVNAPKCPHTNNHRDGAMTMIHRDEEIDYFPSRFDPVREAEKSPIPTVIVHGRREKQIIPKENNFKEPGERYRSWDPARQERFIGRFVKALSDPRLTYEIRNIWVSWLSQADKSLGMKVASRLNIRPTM

[2] = molecular target: T1, AcCATPO; assay: monophenolase activity toward L-tyrosine, absorbance […] nm; type: biochemical; settings: L-tyrosine substrate, 0.057 mM L-DOPA cofactor, no added CuSO4, chelator
[3] = molecular target: T1, AcCATPO; assay: diphenolase activity toward L-DOPA, absorbance […] nm and in-gel staining; type: biochemical; settings: activation, not inhibition, 1 mM L-DOPA substrate, pH 8.0, 60 °C
[4] = molecular target: T1, AcCATPO; assay: monophenolase activity toward L-tyrosine, absorbance […] nm; type: biochemical; settings: activation, not inhibition, L-tyrosine substrate, 0.057 mM L-DOPA cofactor, no added CuSO4
[5] = molecular target: T1, AcCATPO; assay: as above; type: biochemical; settings: L-tyrosine substrate, 0.057 mM L-DOPA cofactor, no added CuSO4
[6] = molecular target: T1, AcCATPO; type: biochemical
[7] = molecular target: T1, AcCATPO; assay: catalase activity, H2O2 decrease at […] nm; type: biochemical; settings: not significant, H2O2 substrate (14 mM in standard assay), pH 7.0, 20 °C
[8] = molecular target: T1, AcCATPO; assay: catalase activity, H2O2 decrease at […] nm; type: biochemical; settings: read-out: % inhibition at 1 mM
[9] = substrate: N[C@@H](Cc1ccc(O)c(O)c1)C(=O)O; assay: purified protein; type: biochemical, Amaranthus cruentus; settings: diphenolase, pH 8.0, 60 °C
[10] = substrate: N[C@@H](Cc1ccc(O)cc1)C(=O)O; assay: purified protein; type: biochemical, Amaranthus cruentus; settings: monophenolase, 0.057 mM L-DOPA as cofactor, pH 8.0, 60 °C

% loss of activity at 1 mM [1]: ~ 99% | % loss of activity at 1 mM [2]: ~ 80%
Molecule: CCN(CC)C(=S)S [sodium diethyldithiocarbamate]

Molecule: O=c1cccccc1O [tropolone]
% increase of activity at 1 mM [3]: ~ 55% | % increase of activity at 1 mM [4]: ~ 25%

% decrease at 1 mM [5]: ~ 15%
Molecule: O=c1cc(CO)occ1O [kojic acid]

Molecule: NC(=S)Nc1ccccc1 [phenylthiocarbamide]
% inhibition at 1 mM [6]: all inhibitors except tropolone, had a significantly inhibitory effect on the monophenolase activity

% decrease at 1 mM [7]: < 25%
Molecule: O=C(O)c1ccccc1O [salicylic acid]

inhibition at 1000 µM [8]: ~90%
Molecule: NNC(=O)c1ccncc1 [isoniazid]

B1: AcCATPO (Amaranthus cruentus) (protein)
chain: MDPYKYRPSSAYNAPYLTTNNGTPVWNDTSALTVGPRGPILLEDYHLIEKIATWTHERIPERVVHARGASAKGFFEVTHDVSHLTCADFLRAPGVQTPVIVRFSTVIHERGSPETLRDPRGFAVKFYTREGNFDIVGNNFPVFFTRDAMQFFDLIRAFKPNPKSHIQESWRYMDFCSYLPESLNTFTFFFDDVGIPINYRHMNGSGVHTFTLLNKAGKVTYVKFHWRPKCGEKNLLEEEAIRIGGENHSHATQDLYESIAAGNFPEWTLYFQTMDPADEDKFDFDPLDTTKTWPENIFPLQPVGRLVLNRNVDNFFTENEQLAFDPAHIVPGIYFSNDKMLQARTFAYADTHRYRLGINYLQLPVNAPKCPHTNNHRDGAMTMIHRDEEIDYFPSRFDPVREAEKSPIPTVIVHGRREKQIIPKENNFKEPGERYRSWDPARQERFIGRFVKALSDPRLTYEIRNIWVSWLSQADKSLGMKVASRLNIRPTM
notes: native, purified from red-violet leaves by native-PAGE gel slice; homotrimer ca. 170 kDa, subunit ca. 58 kDa; cDNA encodes 492 residues; peptides GPILLEDYHLIEK, APGVQTPVIVR, FSTVIHER, ENNFKEPGER, TFAYADTHR
Km [9]: 600 µM | Vmax [9]: 0.75 µM/min | kcat [9]: 0.36 s⁻¹ | kcat/Km [9]: 600 M⁻¹ s⁻¹ | Km [10]: 200 µM | Vmax [10]: 0.079 µM/min | kcat [10]: 0.04 s⁻¹ | kcat/Km [10]: 200 M⁻¹ s⁻¹

Source: PMC4705222, “Identification of a Catalase-Phenol Oxidase in Betalain Biosynthesis in Red Amaranth (Amaranthus cruentus)” (Frontiers in Plant Science, 2016)
